{"source": "patent US10132796B2", "about": "“Method for detecting and quantifying a target molecule in a tissue” (IMABIOTECH, priority 2011, dated 2018)", "assay": "Quantification of propranolol in a treated mouse kidney by MALDI mass spectrometry imaging", "assay_type": "in vivo", "details": "mouse treated with 7.5 mg/kg propranolol, sacrificed 20 minutes post-administration, kidney slices 20 μm, calibration curve from reconstituted kidney", "description": "A mouse kidney treated with 7.5 mg/kg of propranolol, and sacrificed 20 minutes post-administration, is taken.\nThree 20 μm thick tissue slices are produced from the kidney and are each deposited on a support (slide ITO).\nMALDI DHB matrix (40 mg/ml methanol/TFA 0.1% 1/1) is sprayed using a robotized system (SunCollect) onto the slices.\nEach slice is analysed by mass spectrometry imaging, using an Autoflex speed LRF (Bruker, Daltonics). The average intensity of the peaks of the mass spectrum of the propranolol (m/z 260.2) is computed, by once again using a number of ROIs on each slice, all dimensions being the same.\nThe average intensity value obtained is 19633.3.\nThe propranolol concentration in the kidney is quantified using the calibration curve equation (FIG. 2), by including the average intensity value obtained on said straight line. The propranolol here is in a concentration of 5.9 μg/g of tissue.", "data": [{"smiles": "CC(C)NCC(O)COc1cccc2ccccc12", "note": "(stereo not shown) [propranolol]", "values": [{"measurement": "propranolol concentration in the kidney", "value": "5.9 μg/g of tissue"}]}]}
